The values below come from patent US5292521A, “Solid oral preparation containing a pyrrolidine derivative with a catechol group” (priority 1990, dated 1994).

The AUC(0-t) is the area under the concentration-time curve up to a stated or last time point. What is called Cmax is the maximum level reached in the sampled fluid or tissue. For orientation: Tmax means the time at which the peak concentration occurs. One may read the bioavailability as dose-corrected exposure relative to a reference, in per cent. Lower therefore signals poor availability. The MRT is a mean duration of stay, worked out from the concentration-time curve.

Molecules are shown by their SMILES. Where two headings read alike, the source gives them in different places.

Series [1] in a line: Oral administration to fasted beagles of compound (II) or (III) with ascorbic acid, plasma drug disposition parameters (Experimental Examples 5 and 6). The note with it: for AUC(0-t) at 8 h / Cmax / Tmax: po, 3 mg/kg, n=2; for AUC(0-t) at 8 h: AUC (0-8 hr) mean ± SE; for Cmax: Cmax mean ± SE; for Tmax: Tmax mean ± SE. As to the method:
The term "bioavailability" herein is defined as follows: a plasma concentration-time curve of a drug after being administered once is prepared in each case of administration by intravenous injection and oral administration with the same amount of the drug, and the availability is represented by the ratio (F) of the area under the plasma concentration-time curve in the case of oral administration ([AUC]PO)to the area under the plasma concentration-time curve in the case of intravenous injection ([AUC]IV): [formula]
The ratio of an AUC value obtained when one or more compounds selected from the group consisting of organic acids and salts thereof are added to an AUC value obtained when no such compound(s) is (are) added will be referred to as "addition effect ratio".
350 mg of ascorbic acid and 70 mg of lactose were added to 70 mg of compound (II) and the mixture was thoroughly pulverized and mixed in a mortar. The mixture was filled in each of No. 2 gelatin capsules in such an amount that the dose of compound (II) would be 3 mg/kg to obtain a preparation.
A control sample free from ascorbic acid was prepared by preparing a powder of 7-fold dilution with lactose (70 mg of compound (II) plus 420 mg of lactose) and filled in No. 2 capsules in such an amount that the dose of compound (II) would be 3 mg/kg to obtain a preparation.
(a) Administration and collection of blood sample
(§1) Four beagles were divided into two groups (i.e. a group to which ascorbic acid was given and a control group) after fasting overnight (14 hours) and a preparation comprising 3 mg/kg of compound (II) and 15 mg/kg of ascorbic acid or a control preparation comprising no ascorbic acid was given together with 30 ml of water by oral administration. No food was given also in the course of collection of blood sample. 3 ml of the whole blood was sampled through a vein of a foreleg by means of a heparinized syringe, immediately cooled with ice/water and centrifuged (1200 rpm, 3 min, 4° C.). The blood plasma was separated and a citrate buffer solution (pH 3.5, 100 μl) was added thereto to adjust the pH to 5.0. The plasma thus treated was kept frozen at -20° C. The points of collection of blood samples were before the administration and 10, 20, 30 and 45 minutes and 1, 1.5, 2, 3, 4, 6 and 8 hours after the administration.
(b) Method of analysis of concentration of unchanged substance in blood plasma
(c) HPLC determination conditions
The drug disposition parameters of each sample were determined from the data obtained by the oral administration of the preparation comprising 3 mg/kg of compound (II) and 15 mg/kg of ascorbic acid or a control preparation comprising no ascorbic acid to beagles while they were kept fasting.
350 mg of ascorbic acid and 70 mg of lactose were added to 70 mg of compound (III) and the mixture was thoroughly pulverized and mixed in a mortar. The mixture was filled in each of No. 2 gelatin capsules in such an amount that the dose of compound (III) would be 3 mg/kg to obtain a preparation.
A control sample free from ascorbic acid was prepared by preparing a powder of 7-fold dilution with lactose (70 mg of compound (III) plus 420 mg of lactose) and filled in No. 2 capsules in such an amount that the dose of compound (III) would be 3 mg/kg to obtain a preparation.
as §1, with “(III)” for “(II)”, “syringe,” for “syringe, immediately”, “5.0.” for “5.0. The plasma thus treated was kept frozen at -20° C. The points of collection of blood samples were before the administration and 10, 20, 30 and 45 minutes and 1, 1.5, 2, 3, 4, 6 and 8 hours after the administration.”

Series [2] can be described thus: Correlation between AUC and oral dose in beagles, powder of ten-fold dilution with lactose in capsule; bioavailability from regression line (Experimental Example 2). The note with it: oral. It counts as in vivo. As to the method: Compound (VIII) or compound V was formulated into a powder of ten-fold dilution with lactose. It was given to beagles in an amount ranging from 0.3 to 30 mg/kg as a capsule by oral administration and the plasma concentration-time curve thereof was prepared. The regression line equation was as follows: […]

A short description of series [3]: Drug disposition after intravenous injection to beagles, plasma concentration-time curve (Experimental Example 1). It counts as in vivo. The note with it: dog, 1 mg/kg iv; for half-life: iv, 1 mg/kg. As to the method:
1 mg/kg of compound (VIII) was administered to beagles by intravenous injection and the plasma concentration-time curve thereof of prepared to find that the half-life composed of three phases (phases a, b and c).

Where [4] appears, read: dog, plasma, 3 mg/kg oral + ascorbic acid 15 mg/kg.
The mark [5] stands for this setting: dog, plasma, 3 mg/kg oral, none (control).
Setting [6] is: dog, in vivo, 3 mg/kg oral + ascorbic acid 15 mg/kg.
[7] abbreviates: dog, in vivo, 3 mg/kg oral, none (control).

With `CS(=O)(=O)O.Oc1ccc(C2CNCCc3c2cc(O)c(O)c3Cl)cc1` (stereo not drawn) [compound (III), 6-chloro-2,3,4,5-tetrahydro-1-(4-hydroxyphenyl)-1H-3-benzazepine-7,8-diol methanesulfonate, reference compound], the “increase of AUC value” in series [1] (dog, in vivo) is listed as “about 3.3 -fold”. For the same compound, in series [1] (setting [4]), the AUC(0-t) at 8 h is 197 ± 12.5 ng·h/mL, the Cmax stood at 91.9 ± 0.4 ng/mL and the time to peak (Tmax) stood at 30 ± 15 min. Moreover, in series [1] (setting [5]), the AUC(0-t) at 8 h is 59.8 ± 16.9 ng·h/mL, the maximum concentration (Cmax) stood at 39 ± 16.6 ng/mL and the Tmax was 45 ± 15 min.
Compound `Br.Oc1ccc([C@@H]2CNC[C@H]2c2cccc(O)c2Cl)cc1O` (relative stereo) [compound (VIII), trans-3-(2-chloro-3-hydroxyphenyl)-4-(3,4-dihydroxyphenyl)pyrrolidine hydrobromide] registered a bioavailability in series [2] (dog, plasma, efficacious dose around 3 to 5 mg/kg) of 4 to 5%. Besides, the “gradient of regression line log(AUC) vs log(dose)” value in series [2] (0.3 to 30 mg/kg) turned out to be 1.218. In series [2] (0.3 to 30 mg/kg), the “increase of AUC value when the dose is increased 10-fold” value is recorded as 16.5 -fold. Besides, the “intercept of regression line log(AUC) vs log(dose)” value in series [2] (0.3 to 30 mg/kg) is on record as 0.894. Besides, the clearance in series [3] (read-out: CLtotal) was 78 mL/min/kg. Also, in series [3] (read-out: CP^0), the C0 stood at 2290 ng/mL. The mean residence time (MRT) in series [3] (read-out: MRT (mean residence time in the plasma) (converted)) is 14.5 min. Also, the Vd in series [3] (read-out: Vc) is 0.44 L/kg. The half-life was found to be 1.3 min in series [3] (phase a, read-out: t1/2a); 8.11 min in series [3] (phase b, read-out: t1/2b); 26.9 min in series [3] (phase c, read-out: t1/2c).
On to `Br.Oc1ccc(C2CNCc3c2ccc(O)c3O)cc1O` (stereo not drawn) [compound (II), 7,8-dihydroxy-4-(3,4-dihydroxyphenyl)-1,2,3,4-tetrahydroisoquinoline hydrobromide], for which, in series [1] (3 mg/kg oral + ascorbic acid 15 mg/kg), the “Addition effect (AUC ratio)” value is recorded as 1.39. Moreover, the “Addition effect (AUC ratio)” value in series [1] (3 mg/kg oral, none (control)) was found to be 1.00. In series [1] (setting [6]), the AUC(0-t) at 8 h amounted to 116.6 ± 0.1 ng·h/mL, the maximum concentration (Cmax) was determined as 89.6 ± 11.8 ng/mL and the time to peak (Tmax) came to 37.8 ± 7.8 min. Further, in series [1] (setting [7]), the exposure AUC(0-t) at 8 h was 83.6 ± 4.7 ng·h/mL, the Cmax was determined as 95.6 ± 42.2 ng/mL and the Tmax is 25.2 ± 5.4 min. For the same compound, the “increase of AUC value” in series [1] (with ascorbic acid) is given as “about 1.4 -fold”.
